As usually defined, the IC50 is the concentration that inhibits the measured activity by half. Low readings indicate higher potency, high ones lower potency.

Experiment [1] deals with SKOV3 (human ovarian carcinoma). The experiment in a line: CCK-8 cytotoxicity assay, SKOV3. In kind it is cell-based. The note with it: SK-OV-3, SKOV3 cells, 48h. An excerpt: (§1) The cytotoxic effects of the newly synthesized diphenyl(tetrahydro-5H-indeno[2,1-c]quinolin-2-yl)phosphine oxides 8, diphenyl(7H-indeno[2,1-c]quinolin-2-yl)phosphine oxides 9, and diphenyl(7-oxo-7H-indeno[2,1-c]quinolin-2-yl)phosphine oxides 10 derivatives were studied against several human cell lines: A549 (carcinomic human alveolar basal epithelial cell), SKOV3 (human ovarian carcinoma), and HEK293 (human embryonic kidney). Furthermore, in order to analyze the selective cytotoxicity facing exclusively cancerous cell lines, toxicity against a non-cancerous cell line (MRC-5, lung fibroblast cells) was also evaluated (Table 3). The cell counting kit (CCK-8) assay was employed to assess the growth inhibition and cell proliferation inhibitory activities of the compounds, which are described in Table 3 as IC50 values.
(§2) Cells were cultured according to the supplier’s instructions. Cells were seeded in 96-well plates at a density of 1.5–3 × 10^3 cells per well and incubated overnight in 0.1 mL of media supplied with 10% Fetal Bovine Serum (Lonza) in a 5% CO2 incubator at 37 °C. On day 2, drugs were added and the samples were incubated for 48h. After treatment, 10 μL of the cell counting kit-8 was added into each well for an additional 2h incubation at 37 °C. The absorbance of each well was determined by an Automatic Elisa Reader System at 450 nm wavelength (deducting 620 nm). CPT was used as the positive control.
On the technique in general: Tetrazolium assays rely on reduction of a dye to a coloured formazan, in cell work by metabolically active cells.

Experiment [2] has as its system MRC-5, lung fibroblast cells. The experiment can be described thus: CCK-8 cytotoxicity assay, MRC5. In kind it is cell-based, human. As to conditions: Homo sapiens; MRC5 non-cancerous cells, 48h, CCK-8.
From the text: as §1, §2

For experiment [3], the system named is A549 (carcinomic human alveolar basal epithelial cell). The experiment can be described thus: CCK-8 cytotoxicity assay, A549. In kind it is cell-based. As to conditions: Homo sapiens, A549, 48 h, A549 cells, 48h, CCK-8.
From the text: as §1, §2

Experiment [4] concerns the target T1, human TOP1 (Homo sapiens, UniProt P11387).
T1 construct: made in house; host or cells: Saccharomyces cerevisiae TOP1 null strain RS190, plasmid pHT143 (GAL promoter)
T1 sequence (P11387 1-765): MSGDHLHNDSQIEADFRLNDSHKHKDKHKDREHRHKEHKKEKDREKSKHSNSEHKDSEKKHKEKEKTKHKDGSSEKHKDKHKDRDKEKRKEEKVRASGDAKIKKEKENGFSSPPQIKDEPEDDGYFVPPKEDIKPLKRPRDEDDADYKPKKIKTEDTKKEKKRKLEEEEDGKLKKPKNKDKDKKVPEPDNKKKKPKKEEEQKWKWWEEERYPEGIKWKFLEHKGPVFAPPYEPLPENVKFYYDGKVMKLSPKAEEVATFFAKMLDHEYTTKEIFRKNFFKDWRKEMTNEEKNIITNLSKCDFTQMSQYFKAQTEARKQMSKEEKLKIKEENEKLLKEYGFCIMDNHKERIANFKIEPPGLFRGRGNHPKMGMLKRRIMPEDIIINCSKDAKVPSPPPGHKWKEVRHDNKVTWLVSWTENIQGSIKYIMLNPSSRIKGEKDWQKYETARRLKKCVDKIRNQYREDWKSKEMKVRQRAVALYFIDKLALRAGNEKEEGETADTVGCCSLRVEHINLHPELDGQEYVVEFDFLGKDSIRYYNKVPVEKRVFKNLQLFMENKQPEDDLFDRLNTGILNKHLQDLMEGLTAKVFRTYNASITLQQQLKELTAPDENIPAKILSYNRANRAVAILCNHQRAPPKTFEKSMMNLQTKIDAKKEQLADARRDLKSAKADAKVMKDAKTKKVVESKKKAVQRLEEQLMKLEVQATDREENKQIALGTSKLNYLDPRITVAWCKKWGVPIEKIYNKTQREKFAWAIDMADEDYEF
The experiment can be described thus: TOP1 supercoiled plasmid DNA relaxation assay. The format is biochemical. The note with it: compounds at 100 μM, semiquantitative; for TOP1 Inhibition 1 min: 1 min reaction; for TOP1 Inhibition 3 min: 3 min reaction; for TOP1 Inhibition 5 min: 5 min reaction. An excerpt: The effect of the previously prepared compounds as TOP1 inhibitors was studied. A conventional supercoiled plasmid relaxation assay was used to determine if the newly fused tetrahydroindenoquinolines 8, more aromatic indenoquinolines 9, and carbonyl derivatives 10 with phosphine oxide substituents inhibit human TOP1 activity by converting supercoiled plasmid DNA to its relaxed form. In these experiments, compound samples were mixed with the enzyme followed by the addition of a supercoiled plasmid DNA substrate, and incubation continued for increasing time intervals (1 min, 3 min, and 5 min). The reaction was terminated by the addition of SDS. DNA relaxation products were then resolved by 1% agarose electrophoresis gel and visualized by gel red staining.
The yeast Saccaromyces cerevisiae TOP1 null strain RS190, which was used for the expression of recombinant human TOP1, was a kind gift from R. Sternglanz (State University of New York, Stony Brook, NY, USA). Plasmid pHT143, for the expression of recombinant TOP1 under the control of an inducible GAL promoter, was described. The plasmids pHT143 were transformed into the yeast S. cerevisiae strain RS190. The proteins were expressed and purified by affinity chromatography essentially as described. The protein concentrations were estimated from Coomassie blue-stained SDS/polyacrylamide gels by comparison to serial dilutions of bovine serum albumin (BSA).
TOP1 activity was assayed using a DNA relaxation assay by incubating 110 ng/mL of TOP1 with 0.5 µg of negatively supercoiled pUC18 in […] of reaction buffer (20 mM Tris HCl, 0.1 mM Na2EDTA, 10 mM MgCl2, […] acetylated BSA, and 150 mM KCl, pH 7.5). The effect of the synthesized phosphorylated derivatives 8, 9, and 10 on the TOP1 activity was measured by adding different concentrations of the compounds, at different time points, as indicated in the text. The reactions were performed at 37 °C stopped by the addition of 0.5% SDS after the indicated time intervals. The samples were protease-digested and electrophoresed in a horizontal 1% agarose gel in 1xTBE (50 mM Tris, 45 mM boric acid, 1 mM EDTA) at 25V during 18h. The gel was stained with gel red (BIOTIUM, 5 mg/mL), destained with water, and photographed under UV illumination. Since all drugs were dissolved in dimethyl sulfoxide (DMSO), a […] control sample containing the same DMSO concentration as the samples incubated with the drugs was included in all experiments.

Experiment [5] has as its system HEK293 (human embryonic kidney). The experiment can be described thus: CCK-8 cytotoxicity assay, HEK293. The note with it: HEK293 cells, 48h. In kind it is cell-based.
From the text: as §1, §2

Experiment [6] deals with T1, human TOP1. The experiment in a line: TOP1 supercoiled plasmid DNA relaxation assay. The format is biochemical. As to conditions: 30 min reaction; compounds at 100 μM; semiquantitative.

For `COc1cccc(-c2nc3ccc(P(=O)(c4ccccc4)c4ccccc4)cc3c3c2Cc2ccccc2-3)c1` [Compound 9i, Diphenyl(6-(3-methoxyphenyl)-7H-indeno[2,1-c]quinolin-2-yl)phosphine oxide], the IC50 in experiment [1], in experiment [2], in experiment [3] and in experiment [5] was greater than 50 µM throughout. In addition, the “TOP1 Inhibition 1 min” value at human TOP1 [4] was “++”. In addition, the “TOP1 Inhibition 3 min” value on human TOP1 [4] is given as “++”. Further, on human TOP1 [4], the “TOP1 Inhibition 5 min” value was “++”. In addition, on human TOP1 [6], the “TOP1 Inhibition 30 min” value was “++”.
Turning to `O=C1c2ccccc2-c2c1c(-c1ccccc1)nc1ccc(P(=O)(c3ccccc3)c3ccccc3)cc21` [Compound 10a, Diphenyl(7-oxo-6-phenyl-7H-indeno[2,1-c]quinolin-2-yl)phosphine oxide], the IC50 in experiment [1], in experiment [2], in experiment [3] and in experiment [5] was greater than 50 µM throughout. For the same compound, the “TOP1 Inhibition 1 min” value at human TOP1 [4] is “+ (weak inhibition)”. In addition, the “TOP1 Inhibition 3 min” value at human TOP1 [4] is “++”. Further, the “TOP1 Inhibition 5 min” value on human TOP1 [4] was “++”. Moreover, on human TOP1 [6], the “TOP1 Inhibition 30 min” value was “++”.
In the case of `O=C1c2ccccc2-c2c1c(-c1ccc(C(F)(F)F)cc1)nc1ccc(P(=O)(c3ccccc3)c3ccccc3)cc21` [Compound 10b, Diphenyl(7-oxo-(6-(4-trifluoromethyl)phenyl)-7H-indeno[2,1-c]quinolin-2-yl)phosphine oxide], the IC50 in experiment [1], in experiment [2], in experiment [3] and in experiment [5] was greater than 50 µM each time. Also, the “TOP1 Inhibition 1 min” value on human TOP1 [4] is “++”. Also, the “TOP1 Inhibition 3 min” value on human TOP1 [4] is recorded as “++”. Also, on human TOP1 [4], the “TOP1 Inhibition 5 min” value is “++”. At human TOP1 [6], the “TOP1 Inhibition 30 min” value is “++”.
Take `O=C1c2ccccc2-c2c1c(-c1cccc3ccccc13)nc1ccc(P(=O)(c3ccccc3)c3ccccc3)cc21` [Compound 10g, (6-(Naphth-1-yl)-7-oxo-7H-indeno[2,1-c]quinolin-2-yl)diphenylphosphine oxide]: the IC50 in experiment [1], in experiment [2], in experiment [3] and in experiment [5] was greater than 50 µM in each case. At human TOP1 [4], the “TOP1 Inhibition 1 min” value is on record as “+ (weak inhibition)”. In addition, the “TOP1 Inhibition 3 min” value on human TOP1 [4] is “+ (weak inhibition)”. At human TOP1 [4], the “TOP1 Inhibition 5 min” value was “+ (weak inhibition)”. Also, the “TOP1 Inhibition 30 min” value at human TOP1 [6] was “+ (weak inhibition)”.
